For data set [1] the following is noted: treatment of MAS; cited from earlier work.
Data set [2] has as its system SJIA patients. Particulars: observed MAS rates in phase III trials, even if underlying SJIA well controlled; cited from earlier work.
Data set [3] concerns MAS patients. As to conditions: cited from earlier work.
The test system of data set [4] is IFN-induced signature. Particulars: clinical trial of anakinra in SJIA, Quartier et al; vs placebo, regardless of response status; cited from earlier work.
For data set [5], the system named is SJIA patient with recurrent MAS. As to the kind of experiment: Use of Tadekinig-alfa in an SJIA patient with recurrent MAS. The format is in vivo, human. As to conditions: one SJIA patient with recurrent MAS.
For data set [6], the system named is perforin-deficient mice infected with murine CMV. As to conditions: cited from earlier work.

For `COc1cc([C@@H]2c3cc4c(cc3[C@@H](O[C@@H]3O[C@@H]5CO[C@@H](C)O[C@H]5[C@H](O)[C@H]3O)[C@H]3COC(=O)[C@H]23)OCO4)cc(OC)c1O` [etoposide], the “associated toxicity / side effects” value in data set [1] is “Life threatening bone marrow suppression, short-term, and hematologic malignancies later in life”.

Take tocilizumab: the “protection against MAS” value in data set [2] was “do not provide protection against MAS”.

Take canakinumab: the “protection against MAS” value in data set [2] is “do not provide protection against MAS”.

Regarding rilonacept, the “occurrence of MAS in treated patients” value in data set [3] (literature report) is “MAS has been seen”.

Take anakinra: the “strength of the IFN-induced signature” value in data set [4] is recorded as “sustained increase”. The “treatment of MAS” value in data set [3] (literature reports) is reported as “successful treatment of MAS”.

B1: Tadekinig-alfa (protein, UniProt O95998 31-194, looked up)
Interleukin-18-binding protein: TPVSQTTTAATASVRSTKDPCPSQPPVFPAAKQCPALEVTWPEVEVPLNGTLSLSCVACSRFPNFSILYWLGNGSFIEHLPGRLWEGSTSRERGSTGTQLCKALVLEQLTPALHSTNFSCVLVDPEQVVQRHVVLAQLWAGLRATLPPTQEALPSSHSSPQQQG
notes: recombinant IL18BP
On to B1, for which, in data set [5], the “frequency of MAS episodes” value is on record as “remained unchanged” and the “severity of MAS episodes” value is recorded as “reduced the severity of MAS episodes”.

B2: synthetic IL-18BP: synthetic IL-18 binding protein administered to mice (protein, UniProt Q9Z0M9 29-193, looked up)
Interleukin-18-binding protein: TSAPQTTATVLTGSSKDPCSSWSPAVPTKQYPALDVIWPEKEVPLNGTLTLSCTACSRFPYFSILYWLGNGSFIEHLPGRLKEGHTSREHRNTSTWLHRALVLEELSPTLRSTNFSCLFVDPGQVAQYHIILAQLWDGLKTAPSPSQETLSSHSPVSRSAGPGVA
Take B2: in data set [6], the liver damage entry is recorded as “ameliorated liver damage”, the overall survival result is “no change” and the “production of proinflammatory cytokines” value was “remained high”.

The values are drawn from patent US20210052593A1, “Compositions and Methods for the Treatment of Macrophage Activation Syndrome” (Children's Hospital Medical Center, priority 2018, published 2021).
